Reference: patent US4092415A, “Microorganism combatting quinoxaline-di-N-oxide carboxamides” (Ciba-Geigy Corporation, priority 1976, dated 1978)
Read-outs that look alike come from different tables or passages of the source.

How the values were obtained:
Assay type in all cases: in vivo
[1] = tested on: simultaneously infected hens; test: Single peroral administration to simultaneously infected hens; conditions: Gallus gallus, po, single peroral administration by probang, simultaneous with infection
Excerpt: Single peroral administration by means of a probang to
simultaneously infected hens in mg of active substance

Past. mult. = test: Intraperitoneally infected white mice, Past. mult.; conditions: Mus musculus, with infection and 3 hours later, read-out: average effective dose/confidence interval
Experimental: (§1) In tests carried out on white mice, the intraperitoneally infected animals are treated subcutaneously and perorally as follows:
(§2) The administration is effected in doses of 1 mg, 3 mg, 10 mg, 30 mg, 100 mg or 300 mg of active substance per kg of body weight initially simultaneously with the infection and a second time 3 hours later.

Strept. pyog. Aronson = test: Intraperitoneally infected white mice, Strept. pyog. Aronson; conditions: Mus musculus; for ED50: with infection and 3 hours later, read-out: average effective dose/confidence interval; for ED20: value marked (ED 20)
Experimental: as §1, §2

Pseud. aerug. = test: Intraperitoneally infected white mice, Pseud. aerug.; conditions: Mus musculus, with infection and 3 hours later, read-out: average effective dose/confidence interval
Experimental: as §1, §2

Salm. ty.-m = test: Intraperitoneally infected white mice, Salm. ty.-m; conditions: Mus musculus, with infection and 3 hours later, read-out: average effective dose/confidence interval
Experimental: as §1, §2

Staph. aureus Smith = test: Intraperitoneally infected white mice, Staph. aureus Smith; conditions: Staphylococcus aureus, with infection and 3 hours later, read-out: average effective dose/confidence interval
Experimental: as §1, §2

E. coli 205 = test: Intraperitoneally infected white mice, E. coli 205; conditions: Escherichia coli, with infection and 3 hours later, read-out: average effective dose/confidence interval
Experimental: as §1, §2

piglets = test: Demonstration of growth: piglets fed 28 days with medicated feed; conditions: 50 ppm in feed
Excerpt: A group of eight piglets (four .male. and four .female.) was fed for 28 days with a normal feed containing 17.6% of raw protein and 3.4% of crude fibres and to which 50 ppm of 1,4-dioxido-3-methyl-quinoxaline(2)-N-(2'-cyanoethyl)-carboxamide (Example 1) had been added. The average initial weight of the individual test animals was approx. 9 kg at the start of the test. At the conclusion of the test the animals were weighed individually and the feed consumption determined in groups. For control purposes, a parallel test following the same procedure was carried out using the same feed without the addition of active substance.

| Structure (SMILES) | ED50 [1] [mg/kg] | ED50 (Past. mult.; 2 × po.) [mg/kg] | ED50 (Past. mult.; 2 × sc.) [mg/kg] | ED50 (Strept. pyog. Aronson; 2 × po.) [mg/kg] | ED20 (Strept. pyog. Aronson; 2 × sc.) [mg/kg] | ED50 (Pseud. aerug.; 2 × po.) [mg/kg] | ED50 (Pseud. aerug.; 2 × sc.) [mg/kg] | ED50 (Salm. ty.-m; 2 × po.) [mg/kg] | ED50 (Salm. ty.-m; 2 × sc.) [mg/kg] | ED50 (Staph. aureus Smith; 2 × po.) [mg/kg] | ED50 (Staph. aureus Smith; 2 × sc.) [mg/kg] | ED50 (E. coli 205; 2 × po.) [mg/kg] | ED50 (E. coli 205; 2 × sc.) [mg/kg] | ED50 (Strept. pyog. Aronson; 2 × sc.) [mg/kg] | ED20 (Strept. pyog. Aronson; 2 × po.) [mg/kg] | Feed consumption index abs. (piglets; average values, control 1.90) | Daily growth rate abs. (piglets; average values, control 231 g) [g] | Daily growth rate rel. (piglets; control 100%) [%] | Feed consumption index rel. (piglets; control 100%) |
| --- | --- | --- | --- | --- | --- | --- | --- | --- | --- | --- | --- | --- | --- | --- | --- | --- | --- | --- | --- |
| Cc1c(C(=O)NCC#N)[n+]([O-])c2ccccc2[n+]1[O-] [A, 1,4-dioxido-3-methyl-quinoxaline(2)-N-(cyanomethyl)-carboxamide] | 2 | 3.4 | 3 | 265 | 205 | 75 | 120 | 4.2 | 3.9 | 12 | 10 | 3.5 | 3 |  |  |  |  |  |  |
| COC(=O)N/N=C/c1c[n+]([O-])c2ccccc2[n+]1[O-] [E, reference compound] | 9 | ~30 | ~100 |  |  |  |  | 25 | 140 | 35 | 2500 | 30 | 300 |  |  |  |  |  |  |
| Cc1c(C(=O)NCCO)[n+]([O-])c2ccccc2[n+]1[O-] [D, reference compound] | 5.3 | 15 | 14 | 410 |  | 490 | 210 | 13 | 10 | 60 | 40 | 10 | 9 | 425 |  |  |  |  |  |
| Cc1c(C(=O)NC(C)(C)C#N)[n+]([O-])c2ccccc2[n+]1[O-] [B] |  | 5.1 | 3.2 |  | 140 | > 300 | > 100 | 25 | 11 | 18 | 16 | 18 | 11 |  | 170 |  |  |  |  |
| Cc1c(C(=O)NCCC#N)[n+]([O-])c2ccccc2[n+]1[O-] [C, 1,4-Dioxido-3-methyl-quinoxaline(2)-N-(2'-cyanoethyl)-carboxamide] |  | 3.9 | 5.5 | 275 |  | 235 | 105 | 11 | 10 | 27 | 18 | 6.6 | 5.5 | 400 |  | 1.69 kg of feed consumed per kg of | 305 | 132 | 88,9% |
